For the series the following is noted: pH 7.4.
Regarding “Ethyl 2-(benzo[d][1,3]dioxol-5-yl)-7-methoxy-4-(methylamino)quinoline-3-carboxylate [25a]”, the “Permeability (PAMPA)” value is recorded as 2013±179 10^−6 cm/s.
For “Ethyl 2-(benzo[d][1,3]dioxol-5-yl)-5-methoxy-4-(methylamino)quinoline-3-carboxylate [25b]” the value was 1240±154 10^−6 cm/s.
For “2-(Benzo[d][1,3]dioxol-5-yl)-3-(ethoxymethyl)-5-methoxyquinoline [30b]” the value was 2796±1746 10^−6 cm/s.
For “2-(Benzo[d][1,3]dioxol-5-yl)-4-chloro-3-(ethoxymethyl)-7-methoxyquinoline [28a]” the value was 802±370 10^−6 cm/s.

The values above are taken from paper PMC2850272 (Bioorganic & medicinal chemistry, 2010).
